Data: article PMC10712105 (Journal of Translational Medicine, 2023)
Values joined by “and” are separate entries in the source; they are usually repeats but may differ in a detail not shown here. Identical values can stand only once. Counter-ions that a name gives are not always drawn. Like-named read-outs stand apart in the source and are kept apart here.

How the values were obtained:
[1] = parameters: method as in earlier work; settings: irinotecan at 200 mg/kg, mice, cited from earlier work
[2] = system: HCT-116 CRC xenograft tumors; experiment: HCT-116 model efficacy study; settings: for tumor growth inhibition (TGI) on Day 10: IV (irinotecan 50 mg/kg, SPESN38-5 55 mg/kg), vs control group, female SCID mice
Description: (§1) After growing in Eagle's Minimum Essential, HCT-116 cells were harvested by trypsinization and washed twice with PBS. HCT-116 cells (2 × 10^6 per injection) were suspended in 200 µL of a 1:1 solution of ice-cold PBS and Matrigel (Corning Incorporated, Corning, NY) solution. […] After the tumors grew to 800–1200 mm^3, they were isolated, and approximately 50 mg of non-necrotic tumor masses were subcutaneously implanted into the flank area of individual female SCID mice. […] Other doses at 75 and 50 mg/kg were tried on healthy CD-1 mice. […] Tumor volume (TV) and BW were measured three times per week or daily depending on the condition of the mouse. TV was calculated using the formula: v = 0.5 (L x W^2). Progression at the endpoint was a tumor size with diameter ≥ 20 mm or a moribund condition.

SCID mice and CD-1 mice = experiment: Irinotecan IV dose tolerability; type: in vivo, mouse
Description: as §1

[3] = Irinotecan IV dose tolerability; type: in vivo, mouse; settings: female, mouse, in vivo; SCID mice, via IV
Description: as §1

[4] = cited from earlier work
SK-LMS-1 = SK-LMS-1 cell line; cited from earlier work
[5] = system: SK-LMS-1 xenograft tumors; type: in vivo, SCID mice; parameters: Estimate of tumor volume difference vs SPESN38-8 / Estimate of tumor volume difference vs Vehicle: unit not given here; settings: for Tumor volume, Mean / Tumor volume, Median: in mm³ (unit assumed); for Tumor volume change from Day 0, Mean / Tumor volume change from Day 0, Median: volume minus day 0 volume
Excerpt: SK-LMS-1 cell line (HTB-88) was purchased from ATCC. […] Equal number (12) of female and male mice were used in this experiment. […] The intended schedule for drug or vehicle treatment was weekly for 3 doses.
A mixed linear regression model was made with tumor volume as the outcome on day 2, 6, and 9. The model tested for group differences adjusted for time, day 0 volume, and sex. There was a within animal correlation modeled using a random intercept. […] The black color columns are within group at between days, the red columns are between group at each day.

HSA = settings: cited from earlier work
[6] = parameters: method as in PMID 8289200; settings: in the presence of HSA; cited from earlier work
[7] = Water solubility and solution stability; type: physicochemical
Excerpt: Following the formation of SPESN38 complexes, the solution was lyophilized to yield yellowish powder.

cancer cells = system: cancer cells; parameters: method as in PMID 11489791, PMID 1651156; settings: cited from earlier work
[8] = Membrane dialysis SN38 release kinetics; type: physicochemical; settings: in 7 h; 0.1 M NaHCO3 buffer, pH 8.6
[9] = DOX 5 mg/kg qwk x 2, SPESN38-8 IV 33 mg/kg qwk x 3
[10] = Day 2, mixed linear regression model, Tukey-Kramer pairwise test
[11] = Day 6, mixed linear regression model, Tukey-Kramer pairwise test
[12] = IV, DOX 5 mg/kg, SPESN38-8 33 mg/kg, relative to control group
[13] = mixed linear regression model, Tukey-Kramer pairwise test

CCc1c2c(nc3ccc(OC(=O)N4CCC(N5CCCCC5)CC4)cc13)-c1cc3c(c(=O)n1C2)COC(=O)[C@]3(O)CC [irinotecan]
AUC0-∞ ([1]; moiety Free SN38): 9,940 ng x h/mL | Cmax ([1]; moiety Free SN38): 1,125 ng/mL | Tmax ([1]; moiety Free SN38): 31.8 min | AUC0-∞ ([1]; moiety Irinotecan): 16,348 ng x h/mL | Cmax ([1]; moiety Irinotecan): 6,571 ng/mL | Tmax ([1]; moiety Irinotecan): 17.4 min | AUC0-∞ ([1]; moiety SN38-G): 15,493 ng x h/mL | Cmax ([1]; moiety SN38-G): 2,620 ng/mL | Tmax ([1]; moiety SN38-G): 36 min | tumor growth inhibition (TGI) on Day 10 [2]: 82% | tumor growth inhibition (TGI) on Day 10 ([2]; listed as Irinotecan): 82.3% | Tumor weight Difference vs SPESN38-5 PO on Day 10 ([2]; IV groups on Day 21): -0.6587 | Tumor weight Difference vs Vehicle on Day 10 ([2]; IV groups on Day 21): -0.9605 | Mean % BW change at ending day ([2]; normalized BW, ending Day 21, IV qwk x 3 (irinotecan 50 mg/kg, SPESN38-5 55 mg/kg)): 90.5% | Tolerability (SCID mice and CD-1 mice; 50 mg/kg IV, 2 healthy CD-1 mice): safe | Mortality (SCID mice and CD-1 mice; 75 mg/kg IV, healthy CD-1 mice): died instantly | Mortality (SCID mice and CD-1 mice; 100 mg/kg IV, 2 SCID mice bearing HCT-116): both died immediately | MTD [3]: 50 mg/kg | fraction of irinotecan transformed in vivo into SN38 ([4]; human setting): 2–8% | drug excreted as intact irinotecan ([4]; in humans): 55%

COc1cccc2c1C(=O)c1c(O)c3c(c(O)c1C2=O)C[C@@](O)(C(=O)CO)C[C@@H]3O[C@H]1C[C@H](N)[C@H](O)[C@H](C)O1 [DOX, doxorubicin]
IC50 (SK-LMS-1): 490 nM | % Tumor volume change at Day 9 [5, 9]: 142% and 142.4% | Mean Tumor volume at Day 9 [5, 9]: 843.5 mm^3 | Tumor weight on ending day, Mean ([5]; DOX Day 9, SPESN38-8 Day 21): 0.73 g | Tumor weight on ending day, Median ([5]; DOX Day 9, SPESN38-8 Day 21): 0.71 g | Initial mean Tumor volume ([5]; Day 0, DOX 5 mg/kg qwk x 2, SPESN38-8 IV 33 mg/kg qwk x 3): 334.2 mm^3 | Tumor volume, Mean ([5]; Day 0): 334.20 | Tumor volume, Median ([5]; Day 0): 343.40 | Tumor volume, Mean ([5]; Day 2): 347.68 | Tumor volume, Median ([5]; Day 2): 355.78 | Estimate of tumor volume difference vs SPESN38-8 [5, 10]: 42.5383 | Estimate of tumor volume difference vs Vehicle [5, 10]: -178.73 | Tumor volume change from Day 0, Mean ([5]; Day 2): 13.48 | Tumor volume change from Day 0, Median ([5]; Day 2): 14.71 | Tumor volume, Mean ([5]; Day 6): 495.42 | Tumor volume, Median ([5]; Day 6): 464.84 | Estimate of tumor volume difference vs SPESN38-8 [5, 11]: 132.53 | Estimate of tumor volume difference vs Vehicle [5, 11]: -258.70 | Tumor volume change from Day 0, Mean ([5]; Day 6): 161.22 | Tumor volume change from Day 0, Median ([5]; Day 6): 138.34 | Tumor volume, Mean ([5]; Day 9): 843.52 | Tumor volume, Median ([5]; Day 9): 810.34 | Estimate of tumor volume difference vs SPESN38-8 ([5]; Day 9, mixed linear regression model, Tukey-Kramer pairwise test): 538.49 | Tumor volume change from Day 0, Mean ([5]; Day 9): 509.32 | Tumor volume change from Day 0, Median ([5]; Day 9): 472.65 | TGI on Day 6 [5, 12]: 27% and 26.9% | TGI on Day 9 [5, 12]: 25% and 25.3% | Estimate of tumor volume difference within group, Day 2 vs Day 6 [5, 13]: -147.74 | Estimate of tumor volume difference within group, Day 2 vs Day 9 [5, 13]: -495.84 | Estimate of tumor volume difference within group, Day 6 vs Day 9 [5, 13]: -348.11 | BW loss after 2 doses ([5]; mouse, in vivo): > 20%

CC[C@@]1(O)C(=O)OCc2c1cc1n(c2=O)Cc2cc3ccccc3nc2-1 [CPT, Camptothecin]
fold higher HSA affinity for the C form over the L form (HSA): 157 fold | L form at the equilibrium [6]: < 0.5%

CCc1c2c(nc3ccc(O)cc13)-c1cc3c(c(=O)n1C2)COC(=O)[C@]3(O)CC [SN38, 7-ethyl-10-hydroxy camptothecin]
water solubility [7]: very low solubility in water | times more cytotoxic than irinotecan (cancer cells): 100–1000 times

CCc1c2c(nc3ccc(O)cc13)-c1cc3c(c(=O)n1C2)COC(=O)[C@]3(O)CC [SN38 salt]
solution stability ([7]; under the same conditions as SPESN38 complexes): neither SN38 salt nor SN38 salt-HSA mixture is stable | SN38 out of the membrane tubing [8]: > 90%
